Values of other authors, collected in patent US20100092397A1, “Method For Treatment of COPD and Other Pulmonary Diseases” (Activaero GmbH, priority 2008, published 2010).

What was measured:
[1] = test system: subjects with moderate-severe COPD; settings: nebulized ADC4022 12.5 mg twice daily plus budesonide 1 mg twice daily for 4 weeks, versus placebo plus budesonide
[2] = systemic (oral or i.v.) administration; levels above this range result in side effects

Structure (SMILES)	lung function [1]	recommended effective range, plasma level [2] [mg/L]
Cn1c(=O)c2[nH]cnc2n(C)c1=O [ADC4022]	stable	
Cn1c(=O)c2[nH]cnc2n(C)c1=O [Theophylline, theophylline]		10 to 20
